# In ChEMBL document CHEMBL1159162, “Conformationally constrained analogues of diacylglycerol (DAG). 3. Interaction of -alkyl--lactones with protein kinase C (PK-C)” (Bioorg Med Chem Lett, 1993):
# Molecular target: not listed separately
# Test: (§1) Inhibition of [20-3H]phorbol-12,13-dibutyrate (PDBU) binding to protein kinase-C (PKC alpha, beta and gamma) from mouse brain
row,Ki,SMILES
1,2500 nM,CCCCCCCCCCCCCC(=O)O[C@@H]1CC(=O)O[C@H]1CO
2,500 nM,CCCCCCCCCCCCCC(=O)OC[C@H](CO)OC(C)=O
3,600 nM,CCCCCCCCCCCCCC[C@H]1C(=O)O[C@@H](CO)[C@@H]1OC(C)=O
4,2900 nM,CCCCCCCCCCCCCC(=O)O[C@H]1[C@H](CO)OC(=O)[C@@H]1CCCCCCCCCCCC
5,5300 nM,CCCCCCCCCCCCCC(=O)O[C@H]1CC(=O)O[C@@H]1CO
6,1100 nM,CCCCCCCCCCCC[C@H]1C(=O)O[C@@H](CO)[C@@H]1OC(C)=O

# Species on record: Mus musculus
# Test: as §1
row,ED50,SMILES
1,> 200000 nM,CCCCCCCCCCCCCC(=O)O[C@H]1C(CCCCCCCCCCCC)C(=O)O[C@@H]1CO (stereo partly drawn)
2,> 100000 nM,CCCCCCCCCCCCC1C(=O)O[C@H](CO)[C@H]1OC(C)=O (stereo partly drawn)
